One data set relates to collagenase. As to the kind of experiment: collagenase production by chondrocytes (ELISA). The settings on record: for production of metalloproteases, such as collagenase: summary statement. Format: cell-based, bovine. The method, boiled down: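 Bovine articular chondrocytes, orthovanadate 100 μM pretreatment 2 h, then IL 1 (10 ng/ml) or PMA ([…]). Collagenase by ELISA of medium after 24 h; PLA2 as 3H-AA released over 10 min in 1 mg/ml BSA medium; PGE2 by RIA of supernatant after 6 h in Ham's F12.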
A general note: ELISA stands for enzyme-linked immunosorbent assay.

Data set [1] deals with proliferating chondrocytes. As to the kind of experiment: viability / proliferation of proliferating chondrocytes (low cell density). It is filed as cell-based. The settings on record: for proliferation of cells, such as chondrocytes: summary statement. The method, then:
In order to compare the effect of orthovanadate on non-proliferating and proliferating chondrocytes, chondrocytes were plated at both high cell density (2×10^6 to 4×10^6 cells/per well on a six well plate) (nonproliferating) and at a lower cell density (5×10^5 to 1×10^6 cells/per well on a six well plate) (proliferating) and then maintained for 48 hours. The cells were then incubated in media (HAMS F12) containing 0-50 μM Orthovanadate for an additional 48 hours. The cells were harvested and the number of viable cells determined.

The test system of the next data set is P388 (WT). The experiment in a line: MTT cytotoxicity assay, P388 (WT). Format: cell-based, murine. Particulars: P388 (WT), 72 hours; read-out: IC50 Value. The method, boiled down: (§1)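 Cells seeded 24 h before exposure to serial compound concentrations (0.05-100 μM) for 72 h continuous incubation; MTT added for a further 4 h, formazan dissolved in DMSO and read at 570 nm. IC50 taken from % control versus concentration plot; mean of three runs.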
For orientation: Tetrazolium dyes change colour on reduction, which living cells bring about.

A further data set has as its system P388 (ADR). As to the kind of experiment: MTT cytotoxicity assay, P388 (ADR). Format: cell-based, murine. The settings on record: P388 (ADR), 72 hours; read-out: IC50 Value. The method, boiled down: as §1
The next data set has as its system Lewis lung. As to the kind of experiment: MTT cytotoxicity assay, Lewis lung. Format: cell-based, murine. Particulars: 72 hours. On the procedure: (§2) The relative cytotoxicity of various compounds on tumor cell lines was investigated as follows. Cytotoxicity was measured by the MTT microculture tetrazolium colorimetric assay for all cell lines. The relative cytotoxicity of Na3 VO4 and VOSO4 was investigated using the following tumor cell lines: P388(WT) murine leukemia, P388 (ADR) murine leukemia, Lewis murine lung, MCF7 (WT) human breast, […] human lung, K562 human erythroleukemia, A431 human epidermal, LS180 human colon and SK-OV-3 human ovarian. The relative cytotoxicity of doxorubicin, Na3 VO4 and VOSO4 was investigated using the following tumor cell lines: P388(WT) murine leukemia, P388 (ADR) murine leukemia, MCF7(WT) human breast and MCF7 (ADR) human breast. The relative cytotoxicity of BMOV, BEOV and naglivan was investigated using the following tumor cell lines: P388(WT) murine leukemia, P388 (ADR) murine leukemia, Lewis murine lung, H460 human lung, K562 human erythroleukemia, and SK-OV-3 human ovarian.
(§3) The cells were plated (number of cells/well was different from cell line to cell depending on the dividing rate) in a 96-well microculture plate 24 hours prior to the delivery of the vanadium compounds. Serial concentrations of solutions of the test compounds (0.05-100 μM) were delivered to the corresponding wells. A blank column (without cells) and a control column (with cells without vanadium) were left. The cells were incubated for 72 hours continuously. An MTT solution was added to each well after this incubation period and the cells were incubated for 4 more hours for the completion of the dyeing process. The medium was removed find DMSO was added to each well. The absorbance of each well was read with a Titertek Multiskan (310C) spectrophotometer at 570 nm. The percentage of the absorbance of each vanadium concentration relative to the control calculated and the value of the 50% growth inhibition concentration (IC50) was obtained from the % control versus concentration plot. Each assay was repeated three times and the reported IC50 values were the mean of these three runs.

A further data set relates to H460. As to the kind of experiment: MTT cytotoxicity assay, H460. Format: cell-based, human. The settings on record: H460, 72 hours. The method, then: as §2, §3
A further data set deals with K562. As to the kind of experiment: MTT cytotoxicity assay, K562. Particulars: K562, 72 hours. Format: cell-based, human. On the procedure: as §2
as §3, with “Serial concentrations of solutions of the test compounds (0.05-100 μM) were delivered to the corresponding wells.” left out

Another data set relates to SK-OV-3. As to the kind of experiment: MTT cytotoxicity assay, SK-OV-3. It is filed as cell-based, human. Particulars: SK-OV-3, 72 hours. The method, then:
as §2, §3

For another data set, the system named is PLA2. The experiment in a line: release of 3H-arachidonic acid from chondrocytes (PLA2 activity). The settings on record: 100 μM. It is filed as cell-based, bovine. The method, then: The effect of orthovanadate and N-acetylcysteine on fos, jun and collagenase expression were examined. Bovine articular chondrocytes were isolated and plated as previously described (Kandel R. A. et al. Biochim. Biophys. Acta. 1053, 130-134, 1990). In order to determine the effect of orthovanadate on IL 1 and PMA (phorbol ester) induced responses, chondrocytes were incubated with orthovanadate (100 μM) for 2 hours before stimulation with IL 1 (10 ng/ml) or PMA ([…]). Collagenase production was determined by incubating chondrocytes for 24 hours with IL 1 or PMA and the cell conditioned medium was assayed for collagenase activity using an ELISA procedure as described previously (Kandel et al. supra). PLA2 activity was measured by incorporating ^3 H-arachidonic acid (^3 H-AA) into the cells and then incubating the cells with medium containing 1 mg/ml BSA, either alone or in the presence of IL 1 or PMA, for 10 min. as previously described (Conquer, J. A. […], Biochim. Biophys. Acta. 1134, 1-6). The amount of ^3 H-AA liberated into the supernatant was determined. To measure PGE2 production, chondrocytes were incubated for 6 hours in Ham's F12 medium, either alone or with IL 1 or PMA. The supernatant was analyzed by RIA using an antibody specific for PGE2 (Dr. S. A. Jones, Mount Sinai Hospital, Toronto, Canada). […]

The test system of another data set is synoviocytes. The experiment in a line: synoviocyte proliferation, dye exclusion (Example 24). Format: cell-based. The method, then: The effect of vanadium compounds on synoviocyte proliferation was investigated as follows. Synoviocytes were plated on six well plates and treated with orthovanadate or vanadyl sulphate and incubated for 24 hours. The cells were removed and the number of viable cells determined by the dye exclusion method.

The results in this text go back to patent US5871779A, “Treatment of arthropathies with vanadate compounds or analogues thereof” (Mount Sinai Hospital Corporation, priority 1996, dated 1999).

Regarding `Cc1occc(=O)c1[O-].Cc1occc(=O)c1[O-].[O]=[V+2]` [BMOV, bis(methylmaltolato) oxovanadium (IV)], the “production of metalloproteases, such as collagenase” value in the data set on collagenase is “inhibit”. The “proliferation of cells, such as chondrocytes” value in [1] is “inhibit”. In addition, the IC50 – broadly, the midpoint of a concentration-inhibition curve – was 31.1 µM with P388 (WT); 61.2 µM with P388 (ADR); 142 µM with Lewis lung; 6.4 µM in the data set with H460; above 1000 µM in the data set with K562; 2.6 µM with SK-OV-3.
As to `[Na+].[Na+].[Na+].[O]=[V]([O-])([O-])[O-]` [orthovanadate, sodium orthovanadate], the “inhibition of collagenase production” value in the data set with collagenase (100 μM, IL 1 or PMA stimulated) is reported as “completely inhibited”. In the data set with collagenase, the “production of metalloproteases, such as collagenase” value is on record as “inhibit”. For the same compound, the “inhibition of IL 1 or PMA induced release of 3H-AA” value with PLA2 is on record as “did not inhibit”. In addition, the “toxicity to cells plated at low cell density” value in data set [1] (0-50 μM, 48 hours) is listed as “toxic”. For the same compound, the “proliferation of cells, such as chondrocytes” value in data set [1] is given as “inhibit”. Moreover, the IC50 came to 5.5 µM in the data set with P388 (WT); 14.8 µM with P388 (ADR); 42.3 µM with Lewis lung; 1.5 µM in the data set with H460; 100 µM with K562; 2 µM in the data set on SK-OV-3. In addition, the Number of cells in the data set with synoviocytes (25 μM, 24 hours (control 2.6)) is given as 0.1 10^-5. In addition, in the data set on synoviocytes (24 hours), the cytotoxicity to synoviocytes entry is listed as “cytotoxic to the cells”. Besides, in the data set on synoviocytes (24 hours), the synoviocyte proliferation entry is “inhibited synoviocyte proliferation”.
